This is an account of results in patent US20130150598A1, “USE OF 25-HYDROXY-VITAMIN D3 TO AFFECT HUMAN MUSCLE PHYSIOLOGY” (DSM IP ASSETS B.V., priority 2008, published 2013).

Data set [1] has as its system healthy, postmenopausal women. As to the kind of experiment: Clinical trial: muscle strength (knee extensor and flexor strength). The format is in vivo, human. To be noted: 4 months; for Muscle strength, knee extension (best value), change vs. baseline / Muscle strength, knee extension (mean value), change vs. baseline / Muscle strength, knee flexion (best value), change vs. baseline / Muscle strength, knee flexion (mean value), change vs. baseline: daily 20 μg per day / weekly 140 μg per week, oral. The source says: (§1) Each group included five subjects. They are followed for four months in Zurich, Switzerland during the winter.
(§2) Equimolar quantities of both substances were investigated. […] As the maximum pre-existing baseline concentration of 25-OH D3 will be 50 nmol/L, it is not anticipated that subjects will approach the range where disturbance in Ca^2+ homeostasis has been observed.
(§3) Each dosage is consumed orally at breakfast. The duration of the study is four months for the “Daily” and “Weekly” groups. Subjects enrolled in the “Bolus” group consume orally a single dosage at the second study visit.
(§4) Muscle strength and function were assessed by the following standard performance tests: knee flexor and extensor strength, repeated sit-to-stand test and timed up & go (TUG) in Week 1 on visit 2 (baseline) and at study end on visit 15. Muscle strength was measured as knee extensor and flexor in Newtons (kiloponds). TUG is a measure of functional mobility including muscle strength, gait speed, and balance and is assessed in seconds. The repeated sit-to-stand is a functional test and measured in seconds.

The test system of data set [2] is gastrocnemius muscle gene expression (mRNA). As to the kind of experiment: Gene chip analysis of gastrocnemius muscle in hindlimb unloaded (tail suspension) skeletal muscle atrophy model. To be noted: for Differentially expressed muscle genes compared to HU: selected skeletal muscle genes. The format is in vivo, BalbC mice. The text has this: Initially this model was established in rats for simulating spaceflight in humans and is commonly used in other scientific fields to study the loss of skeletal muscle mass or bone. The results are considered indicative of human conditions such as sarcopenia (degenerative loss of skeletal muscle mass and strength during the process of ageing) or immobilization of skeletal muscle (e.g. after prolonged bed rest due to fractures, surgery or trauma). Methods For our study, nine month old BalbC female mice were randomized at the beginning of the study into four groups with 10 animals per group • 1. […] The animals were placed in special cages for duration of seven days; all mice were housed separately and had free access to feed and water ad libidum. […] At the end of the study the gastrocnemius muscle was taken out and directly frozen in liquid nitrogen for further analysis. […] Total RNA was isolated using the commonly used Trizol protocol. The RNA was quantified by using spectrophotometric analysis. The integrity of total RNA samples was also assessed qualitatively on an Agilent 2100 Bioanalyzer. RNA was then prepared for the one cycle cDNA synthesis. A poly-A RNA control is used for this step to provide exogenous positive controls to monitor the entire eukaryotic target labelling process. The first cDNA synthesis is done, and after the second strand cDNA synthesis the cDNA is cleaned up of double-stranded cDNA. A biotin labelled cRNA is then synthesised, cleaned up and quantified using a spectrophotometer at 260/280 nm. It is important that cRNA target is fragmented before hybridization onto a GeneChip probe arrays to obtain optimal assay sensitivity. After fragmentation the probes are hybridized on the chips (Affymetrix Mouse 430-2 chips). The chips are washed and stained in the fluidics station of Affymetrix and scanned in the gene chip scanner. The data is then transferred from the scanner for further analysis using software from Genedata (Expressionist 5.0: […] Analyst). Data interpretation and pathway analysis was done with the online version of the GeneGo Metacore package ([…] evaluates microarray data for quality issues and flags problematic measurements. It provides a set of normalization algorithms and validated condensing methods to automatically pre-process and summarize raw microarray data for subsequent statistical analysis.

Another data set has as its system C57BL/6J mice. Briefly: Muscle hypertrophy model (gastrocnemius removal) and endurance exercise capacity test. Format: in vivo. The text has this: The objective of this study was to test the effects of 25-OH D3 in a muscle hypertrophy model and in an endurance exercise capacity test in C57BL/6J mice. It is recognized in the art that removal of the gastrocnemius muscle induces compensatory hypertrophy in the soleus and plantaris muscles by multiple mechanisms leading to improved muscle strength and leg power.
Two groups of 10 animals were anesthetized and the left hindlimb of the animals was fixed. All animals received an analgesic. A small incision was made through the skin over the gastrocnemius muscle. The complete gastrocnemius muscle and the tendons were exposed. Both heads of the gastrocnemius muscle were carefully dissected from the underlying intact muscles and care was taken not to rupture nerves and vessels. The skin was closed with a silk suture and the animals were returned into the cages. After recovering from anesthesia the animals could move directly without problems in their cages. Animals were treated for three weeks by gavage with 25-OH D3 at a daily dosage of 50 μg/kg and the control group received vehicle. At the end of the study endurance exercise capacity of all animals was tested on a rodent treadmill.

Data set [3] relates to healthy, postmenopausal women. Briefly: Clinical trial: muscle function (repeated sit-to-stand, timed up & go). Format: in vivo, human. To be noted: for Muscle function, repeated sit-to-stand, change vs. baseline / Muscle function, timed-up-and-go, change vs. baseline: daily 20 μg per day / weekly 140 μg per week, oral.
Source text: as §1, §2, §3, §4

The conditions of data set [4]: at the safe upper level of 250 μg/day; cited from earlier work.
[5] abbreviates: GLM least square means, % improvement adjusted for baseline strength, age, BMI.
Where [6] appears, read: GLM least square means, % time needed adjusted for baseline function, age, BMI, 4 months.

Regarding `C=C1CC[C@H](O)C/C1=C/C=C1\CCC[C@]2(C)[C@@H]([C@H](C)CCCC(C)(C)O)CC[C@@H]12` [25-OH D3, 25-hydroxyvitamin D3], in data set [1] (setting [5]), the “Muscle strength, knee extension (best value), change vs. daily/weekly Vitamin D3” value was 17.6%; the “Muscle strength, knee extension (mean value), change vs. daily/weekly Vitamin D3” value was 17.0%; the “Muscle strength, knee flexion (best value), change vs. daily/weekly Vitamin D3” value was 4.7%; the “Muscle strength, knee flexion (mean value), change vs. daily/weekly Vitamin D3” value stood at 3.1%. Also, in data set [1], the “Muscle strength, knee extension (best value), change vs. baseline” value was determined as 13.6 Newton; the “Muscle strength, knee extension (mean value), change vs. baseline” value was 13.0 Newton; the “Muscle strength, knee flexion (best value), change vs. baseline” value is 7.2 Newton; the “Muscle strength, knee flexion (mean value), change vs. baseline” value stood at 7.9 Newton. Besides, in data set [2] (Venn overlap, FIG. 2 / FIG. 3), the “Share of the group's differentially expressed probe sets also differentially expressed in 25-OH D3+Vitamin D3 group” value is ~61%. Moreover, in data set [2], the “Differentially expressed muscle genes compared to HU” value is listed as “Desmin; dystonin; myocyte enhancer factor 2A;”. The “Soleus-Plantaris muscle weight/body weight” value in the data set on C57BL/6J mice (50 μg/kg/day gavage, 3 weeks, control 1.82) was found to be 1.94 mg/g. This compound also had a Soleus wet weight in the data set with C57BL/6J mice (50 μg/kg/day gavage, 3 weeks, control 5.25) of 6.37 mg. This compound also returned a Plantaris wet weight in the data set with C57BL/6J mice (50 μg/kg/day gavage, 3 weeks, control 31.68) of 33.24 mg. This compound gave a Muscle cross-sectional area in the data set with C57BL/6J mice (computer tomography, 50 μg/kg/day, 3 weeks, control 19.90) of 20.98 mm^2. The “Total leg cross-sectional area” value in the data set on C57BL/6J mice (computer tomography, 50 μg/kg/day, 3 weeks, control 22.78) amounted to 24.04 mm^2. Further, in the data set on C57BL/6J mice (in words), the “Skeletal mass by computer tomography of muscle and total leg area” value is reported as “increases skeletal mass”; the “Soleus-plantaris muscle weight/body weight ratio compared to control” value is recorded as “increased”; the “Wet weight of the soleus and plantaris muscles compared to control animals” value is given as “increased”. For the same compound, the “Endurance exercise capacity compared to control mice” value in the data set with C57BL/6J mice (in words, longer running distance and time) is “increased endurance exercise capacity”. The compound also came in with a Running time with C57BL/6J mice (rodent treadmill, 50 μg/kg/day, 3 weeks, control 37.6) of 41.0 min. Besides, the Running distance with C57BL/6J mice (rodent treadmill, 50 μg/kg/day, 3 weeks, control 986.0) came out at 1078.4 m. Moreover, in data set [3] (setting [6]), the “Muscle function, repeated sit-to-stand, change vs. daily/weekly Vitamin D3” value is on record as 13.9% and the “Muscle function, timed-up-and-go, change vs. daily/weekly Vitamin D3” value was 8.4%. In addition, in data set [3] (4 months), the “Muscle function, repeated sit-to-stand, change vs. baseline” value turned out to be 0.63 s and the “Muscle function, timed-up-and-go, change vs. baseline” value was 0.27 s. The “Likelihood of maintaining or improving lower extremity strength and function compared to Vitamin D3” value in data set [3] (unadjusted analysis across four lower extremity tests) is reported as 2.8 fold.

Turning to `C=C1CC[C@H](O)C/C1=C/C=C1\CCC[C@]2(C)[C@@H]([C@H](C)CCCC(C)C)CC[C@@H]12` [Vitamin D3, cholecalciferol], in data set [1], the “Muscle strength, knee extension (best value), change vs. baseline” value is −24.8 Newton; the “Muscle strength, knee extension (mean value), change vs. baseline” value is −23.7 Newton; the “Muscle strength, knee flexion (best value), change vs. baseline” value is reported as 2.4 Newton; the “Muscle strength, knee flexion (mean value), change vs. baseline” value came out at 3.6 Newton. The “Differentially expressed probe sets for genes against HU control group” value in data set [2] (50 μg/kg/bw each, gavage twice, 7 days hindlimb unloading, Affymetrix Mouse 430-2) worked out at 385. Besides, in data set [2] (Venn overlap, FIG. 2 / FIG. 3), the “Number of the group's differentially expressed probe sets also differentially expressed in 25-OH D3+Vitamin D3 group” value was determined as 177 and the “Share of the group's differentially expressed probe sets also differentially expressed in 25-OH D3+Vitamin D3 group” value is ~46%. For the same compound, in data set [2] (gastrocnemius, microarray signal, HU control 749), the “Expression pattern Myosin, light chain kinase (Mylk)” value is listed as 786. In addition, the “Expression pattern Tropomyosin 1 (Tpm1)” value in data set [2] (gastrocnemius, microarray signal, HU control 1179) came out at 2199. In addition, the “Expression pattern Titin (Tnt)” value in data set [2] (gastrocnemius, microarray signal, HU control 11353) is recorded as 11354. Also, the “Expression pattern Myomesin 1 (Myom 1)” value in data set [2] (gastrocnemius, microarray signal, HU control 84697) is recorded as 99099. The “Differentially expressed muscle genes compared to HU” value in data set [2] is “Desmin; myoneurin; tropomyosin 1, alpha; tropomyosin”. In data set [3] (4 months), the “Muscle function, repeated sit-to-stand, change vs. baseline” value came out at 0.30 s and the “Muscle function, timed-up-and-go, change vs. baseline” value was -0.46 s.

Vitamin D: the “Blood concentration of 25-hydroxyvitamin D after ingestion as dietary supplement” value in data set [4] is “about 200 nmol/L”.
